Test results: US5824299A, “Modulation of endothelial cell proliferation with IP-10” (President & Fellows of Harvard College, priority 1995, dated 1998)

Target: T1, murine IP10-AP (IP-10 alkaline phosphatase fusion protein) (UniProt P05187+P17515)
T1 construct: made in house; host or cells: NIH-3T3 clone 18.G5 (conditioned medium)
Assay: glycosaminoglycan inhibition of IP10-AP binding to A20 B cells
Conditions: 15 nM mIP10-AP, 2 hours on ice; for inhibition of IP10-AP binding: at a concentration 100× below 1 mg/ml
Procedure: 107 A20 cells were incubated with 15 nM mIP10-AP in the presence of the indicated concentrations of heparin (H), heparan sulfate (HS), chondroitin sulfate B (CSB) and chondroitin sulfate A (CSA) for 2 hours on ice. Cells were then washed and bound IP10-AP assayed.
Binding Assays. For non-adherent cells, […] were washed 1× with ice-cold binding buffer (HBSS/10 mM Hepes/0.1% ETSA) and resuspended in the indicated concentration of IP10-AP and competitors in a total of […] ice-cold binding buffer. Binding was carried out for 2 hrs on ice with occasional mixing. Cells were washed 5× with ice cold binding buffer by repeated centrifugation at 4° C. Cell bound AP activity was determined by lysing cells in […] 10 mM Tris (pH 8.0)/1% Triton X-100, heating at 65° C. for 10 min to inactivate cellular alkaline phosphatase, and then centrifuging at 14,000×g for 10 min. 50 ml of the soluble lysate was then mixed with 50 ml 2× SEAP buffer in a 96 well plate at room temperature and the colormetric product was assayed in a kinetic plate reader at A405. For adherent cells with higher numbers of binding sites, binding was determined in 6 well cluster plates. Cells were washed 2× with ice-cold binding buffer and incubated with the indicated concentration of IP10-AP and competitor in a total of 500 ml of ice-cold binding buffer for 2 hrs in the cold room on a rocker platform. […] Non-specific binding was determined in one of two ways. For the calculation of the equilibrium constant, non-specific binding was determined by adding […] at each concentration of IP10-AP and performing the binding experiments in parallel exactly as described above. Specific binding was determined by subtracting background from total binding. Specific binding data was analyzed with the binding equation B=(Bmax×F)/(Kd+F) (where B is bound ligand and F is free ligand) (28) using the program KaleidaGraph on a Macintosh computer. […] 125I-IP10 binding to cells was performed essentially as described above for IP10-AP binding except the cell pellet with bound IP-10 was counted in a gamma-counter. […]

T1 sequence (P17515+P05187 fused): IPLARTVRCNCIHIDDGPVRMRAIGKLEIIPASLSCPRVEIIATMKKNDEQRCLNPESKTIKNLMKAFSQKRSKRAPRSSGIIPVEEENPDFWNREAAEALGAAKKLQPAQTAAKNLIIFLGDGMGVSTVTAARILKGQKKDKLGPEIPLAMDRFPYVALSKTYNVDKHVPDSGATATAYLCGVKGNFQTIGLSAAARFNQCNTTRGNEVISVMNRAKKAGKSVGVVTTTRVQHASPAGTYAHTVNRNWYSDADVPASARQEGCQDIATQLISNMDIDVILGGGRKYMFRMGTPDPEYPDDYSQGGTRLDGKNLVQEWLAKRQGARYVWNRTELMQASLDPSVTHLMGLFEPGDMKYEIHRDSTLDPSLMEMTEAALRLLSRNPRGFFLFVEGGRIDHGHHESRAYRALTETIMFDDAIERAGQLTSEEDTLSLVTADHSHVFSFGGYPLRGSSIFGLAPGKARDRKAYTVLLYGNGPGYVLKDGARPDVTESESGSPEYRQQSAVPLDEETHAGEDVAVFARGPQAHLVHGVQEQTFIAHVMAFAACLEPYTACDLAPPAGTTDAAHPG

Row | effect on IP10-AP binding (1 mg/ml) | inhibition of IP10-AP binding | Substance
1 | no effect |  | chondroitin sulfate A
2 |  | complete inhibition | heparan sulfate
3 |  | complete inhibition | heparin
